# “Also recorded” adds a separate entry of the source. Like-named read-outs stand apart in the source and are kept apart here.
# Key:
# medaka ARβ (mARβ) = medaka ARβ (mARβ) (Oryzias latipes, UniProt D1MV73); experiment: Medaka ARβ reporter gene assay (RGA), agonist assay, HepG2 cells; format: cell-based, Japanese medaka (Oryzias latipes); settings: mARβ RGA agonist assay; ND = no significant response even at the highest assay concentration (in parentheses)
# Procedure: To support interpretation of the biological effects observed in the FSTRA studies, in vitro RGAs using medaka Esr1 (mEsr1) and medaka ARβ (mARβ) were performed for the 16 test chemicals.
# For the assays, human liver cancer cell line, HepG2, was used as the host cells, and mARβ/pcDNA3.1, MMTV‐Luc, and pRL‐TK‐Rlu were used as mARβ expression vector, reporter vector, and internal control vector, respectively.
# (§1) Effect concentrations, that is, EC50 (a half maximal effective concentration) in the agonist assay and IC50 (a half maximal inhibitory concentration) in the antagonist assay, were estimated by nonlinear curve fitting (e.g., three parameters logistic regression curve) using GraphPad Prism (GraphPad Software Inc., La Jolla, CA, USA).
# medaka Esr1 (mEsr1) = molecular target: T1, medaka Esr1 (mEsr1) (Oryzias latipes, UniProt P50241); experiment: Medaka Esr1 reporter gene assay (RGA), antagonist assay with 1 nM E2, HEK293 cells; format: cell-based, Japanese medaka (Oryzias latipes)
# T1 construct: expressed in transfected cells; host or cells: HEK293 (human embryonic kidney cells), transient transfection with FuGENE HD
# T1 sequence (P50241 1-620): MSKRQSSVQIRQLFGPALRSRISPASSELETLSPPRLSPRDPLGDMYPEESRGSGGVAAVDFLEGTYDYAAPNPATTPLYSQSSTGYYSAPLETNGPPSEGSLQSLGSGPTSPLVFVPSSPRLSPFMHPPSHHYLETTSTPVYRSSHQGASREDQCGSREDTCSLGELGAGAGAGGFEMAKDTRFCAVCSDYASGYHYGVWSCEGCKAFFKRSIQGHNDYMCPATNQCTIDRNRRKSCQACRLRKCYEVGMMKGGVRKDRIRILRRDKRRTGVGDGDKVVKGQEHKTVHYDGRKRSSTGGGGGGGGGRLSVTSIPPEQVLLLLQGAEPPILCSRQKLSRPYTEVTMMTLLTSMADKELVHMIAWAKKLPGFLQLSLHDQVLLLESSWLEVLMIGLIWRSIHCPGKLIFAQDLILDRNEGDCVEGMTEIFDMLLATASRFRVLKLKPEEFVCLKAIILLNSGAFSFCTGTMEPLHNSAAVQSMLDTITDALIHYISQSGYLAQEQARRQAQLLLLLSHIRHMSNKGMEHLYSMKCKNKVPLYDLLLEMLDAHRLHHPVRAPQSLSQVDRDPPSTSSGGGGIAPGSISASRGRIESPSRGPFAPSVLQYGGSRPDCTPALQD
# Procedure: To support interpretation of the biological effects observed in the FSTRA studies, in vitro RGAs using medaka Esr1 (mEsr1) and medaka ARβ (mARβ) were performed for the 16 test chemicals. In the present study, Esr1 and ARβ, which are ancestral subtypes among Esrs and ARs in Japanese medaka, were selected based on the phylogenetical analyses of Esr and AR with each receptor RGAs (Ogino et al., [2016], [2018]; Tohyama et al., [2015]).
# The mEsr1 RGA consisting of agonist and antagonist assays were performed according to the methods previously reported (Katsu et al., [2010]; Lange et al., [2012]; Miyagawa et al., [2014]). Briefly, human embryonic kidney cells 293 (HEK293), precultured, were seeded in 96‐well plates at 15,000 cells/well with 200 μl of culture medium, phenol‐red‐free Dulbecco's Modified Eagle's medium (ThermoFisher Scientific K.K., Tokyo, Japan) supplemented with 2‐mM L‐glutamine and 10% charcoal/dextran‐treated fetal bovine serum (Hyclone, UT, USA), and then incubated for 24 h in 5% CO2 at 37°C. After the 24‐h incubation, 20 μl of test medium containing 40 ng of medaka Esr1/pcDNA3.1, 80 ng of ERE‐TK‐Luc, and 20 ng of pRL‐TK‐Rlu and 1.2 μL of transfection reagent FuGENE HD (Promega, WI, USA) were added into each well. The assay plates were incubated for another 4 h in order to transfect the three vectors into the HEK293 cells. After the vectors were successfully transfected, in agonist assay, 24 μl of concentrated test chemical solution was applied to the test medium in the plate wells. […] After chemical treatment for 40 h, luciferase activity of the cells was measured, and the promoter activity was calculated as firefly (Photinus pyralis)‐/sea pansy (Renilla reniformis)‐luciferase activity in each well. The luciferase activities were quantified by a chemiluminescence assay with Dual‐Luciferase Reporter Assay System (Promega) in accordance with the manufacturer's instructions, and luminescence intensity of firefly and sea pansy luciferin was measured using a luminometer, TriStar LB941 (Berthold Technology, Oak Ridge, TN, USA).
# as §1
# [1] = test system: Japanese medaka (Oryzias latipes); experiment: Fish short-term reproduction assay (FSTRA, OECD TG229), 21-day flow-through exposure; settings: for GSI Female / HSI Female / Length Female / Weight Female / GSI Male / HSI Male / Length Male / Weight Male: at completion of exposure; for Fertility rate (%) / Mortality (%) Female / Mortality (%) Male / Number of fertilized eggs / Number of total eggs / SSC Female / SSC Male / VTG (ng/mg of liver) Female / VTG (ng/mg of liver) Male: 21 days
# Procedure: The experimental studies on the FSTRA for the 16 chemicals were conducted in two laboratories in Japan, the National Institute for Environmental Studies (NIES, Lab‐1) and the Institute of Environmental Ecology, IDEA Consultants Inc. (Lab‐2), in accordance with OECD TG229 (OECD, [2012a]) (Table 1).
# The NIES‐R strain of Japanese medaka (O. latipes), one of the orange‐red varieties, was used in all the 16 chemical studies. For the studies, healthy and mature male and female medakas at 16 ± 2 weeks old were selected from a single‐stock population, which were bred within the test facilities. The test fish were maintained in conditions similar to the assay for at least 7 days, and spawning status was checked during the acclimation period. On the day the chemical exposure commenced, to ensure balanced distribution of test fish between the treatment groups for the reproductive status of the fish, the replicate vessels (fish tanks), with each containing three male and female medaka, were distributed to each treatment and control group, for example, by a randomized block design based on the number of fertilized eggs laid in the last 5–7 days during the acclimation, in each assay.
# The water solubility of the test chemical was also taken into consideration when deciding the highest test concentration. To set the lower concentrations, a spacing factor ranging between two and five was used. All assays included a dilution water control (DWC).
# Test solutions at the selected concentrations were prepared by diluting a stock solution, which was prepared by an adequate method depending on the physicochemical properties of the test chemicals, for example, by simply mixing the test chemical in dilution water by stirring and/or sonicating for an appropriate time or by using a solid–liquid saturator. In the two laboratories, flow‐through exposure systems, in which a series of test solutions at the target concentrations can be continuously prepared and delivered to test vessels at controlled flow rates (Haselman et al., [2016]; Watanabe et al., [2017]), were used for the exposure experiments.
# In the FSTRA, three mature adult males and females in a test vessel were exposed together to the test chemicals in flow‐through condition for 3 weeks. In all the assays, each treatment group, including the DWC group, contained four replicate tanks. During the exposure period, the fish were fed a sufficient amount of live brine shrimp nauplii (newly hatched Artemia sp.) for daily spawning ad libitum. Fecal material in the tanks was appropriately removed by siphoning after feeding. Water temperature of test solutions was recorded for at least one vessel in each treatment and control group every day and for all vessels at least once a week. Furthermore, dissolved oxygen and pH of test solutions were measured for all test vessels at least once a week. Mortality and abnormal behavior and appearance in the fish exposed to test chemicals were daily observed, and any fish that died were removed from the tank as soon as possible. To assess the reproductive status, all eggs females spawned were collected every day. At the completion of the chemical exposure, surviving fish in each tank were sampled.
# The eggs females released on the bottom of the tank were collected by siphoning, and the egg clutches still on female abdomen were carefully picked from the body of the females captured using a small net. All the eggs collected were microscopically observed and separately counted for fertilized and unfertilized.
# Chain of medaka ARβ (mARβ) (D1MV73 entry or part of it): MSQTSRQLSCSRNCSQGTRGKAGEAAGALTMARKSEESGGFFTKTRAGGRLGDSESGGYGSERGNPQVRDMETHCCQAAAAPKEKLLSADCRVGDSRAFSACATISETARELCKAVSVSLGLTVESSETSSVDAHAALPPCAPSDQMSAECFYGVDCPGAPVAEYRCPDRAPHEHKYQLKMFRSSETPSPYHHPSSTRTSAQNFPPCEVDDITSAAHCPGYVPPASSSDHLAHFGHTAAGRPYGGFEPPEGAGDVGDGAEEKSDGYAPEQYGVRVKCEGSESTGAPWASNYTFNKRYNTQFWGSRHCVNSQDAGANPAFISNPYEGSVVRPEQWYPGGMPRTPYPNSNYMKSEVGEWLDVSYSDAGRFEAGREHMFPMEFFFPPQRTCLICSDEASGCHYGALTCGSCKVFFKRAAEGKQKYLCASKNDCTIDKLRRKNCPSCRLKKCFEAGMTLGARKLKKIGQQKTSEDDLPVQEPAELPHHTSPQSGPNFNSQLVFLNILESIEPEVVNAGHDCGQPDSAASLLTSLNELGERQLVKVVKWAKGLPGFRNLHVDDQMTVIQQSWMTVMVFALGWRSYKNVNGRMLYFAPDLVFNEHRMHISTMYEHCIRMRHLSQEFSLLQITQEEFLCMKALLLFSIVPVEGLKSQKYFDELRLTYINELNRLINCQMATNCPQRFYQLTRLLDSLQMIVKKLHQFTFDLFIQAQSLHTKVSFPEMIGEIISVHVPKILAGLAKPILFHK
smiles,measurement,setting,value
"C[C@]12CC(=O)[C@H]3[C@@H](CCC4=CC(=O)CC[C@@]43C)[C@@H]1CC[C@@H]2O [11KT, 11‐ketotestosterone]",EC50,medaka ARβ (mARβ),2.7 nM
same,IC50,"medaka Esr1 (mEsr1); mEsr1 RGA antagonist assay, 1 nM E2-mediated transactivation, ND = no significant response even at the highest assay concentration (in parentheses), read-out: Antagonist assay, IC50, Medaka Esr1",> 100000 nM
"CC/C(=C(\c1ccc(O)cc1)c1ccc(OCCN(C)C)cc1)c1ccccc1 [4HTAM, 4‐hydroxytamoxifen]",IC50,medaka Esr1 (mEsr1),0.52 nM
"CCCN(CCOc1c(Cl)cc(Cl)cc1Cl)C(=O)n1ccnc1 [PCL, Prochloraz]","effect on fertility rate, in words",[1]; 21-day exposure,significant decrease; also recorded: significant reduction
same,GSI Female,[1]; measured conc. 20.6 μg/L,10.2%
same,HSI Female,[1]; measured conc. 20.6 μg/L,4.2%
same,Length Female,[1]; measured conc. 20.6 μg/L,35.0 mm
same,Weight Female,[1]; measured conc. 20.6 μg/L,547 mg
same,GSI Female,[1]; measured conc. 44.9 μg/L,11.1%
same,HSI Female,[1]; measured conc. 44.9 μg/L,4.5%
same,Length Female,[1]; measured conc. 44.9 μg/L,36.5 mm
same,Weight Female,[1]; measured conc. 44.9 μg/L,591 mg
same,LOEC for decrease of VTG in females,"[1]; hepatic VTG, 21-day exposure, measured conc.",44.9 µg/L
same,GSI Male,[1]; measured conc. 20.6 μg/L,1.26%
same,HSI Male,[1]; measured conc. 20.6 μg/L,1.7%
same,Length Male,[1]; measured conc. 20.6 μg/L,34.4 mm
same,Weight Male,[1]; measured conc. 20.6 μg/L,408 mg
same,GSI Male,[1]; measured conc. 44.9 μg/L,1.16%
same,HSI Male,[1]; measured conc. 44.9 μg/L,1.7%
same,Length Male,[1]; measured conc. 44.9 μg/L,34.3 mm
same,Weight Male,[1]; measured conc. 44.9 μg/L,415 mg
same,Fertility rate (%),[1]; measured conc. 20.6 μg/L,94%
same,Mortality (%) Female,[1]; measured conc. 20.6 μg/L,0%
same,Mortality (%) Male,[1]; measured conc. 20.6 μg/L,0%
same,Number of fertilized eggs,[1]; measured conc. 20.6 μg/L,37
same,Number of total eggs,[1]; measured conc. 20.6 μg/L,39 ± 4.5 /female/day
same,SSC Female,[1]; measured conc. 20.6 μg/L,0 ± 0
same,SSC Male,[1]; measured conc. 20.6 μg/L,103 ± 15
same,VTG (ng/mg of liver) Female,[1]; measured conc. 20.6 μg/L,289 ± 57 ng/mg of liver
same,VTG (ng/mg of liver) Male,[1]; measured conc. 20.6 μg/L,2.6 ± 2.0 ng/mg of liver
same,Fertility rate (%),[1]; measured conc. 44.9 μg/L,84%
same,Mortality (%) Female,[1]; measured conc. 44.9 μg/L,0%
same,Mortality (%) Male,[1]; measured conc. 44.9 μg/L,0%
same,Number of fertilized eggs,[1]; measured conc. 44.9 μg/L,28
same,Number of total eggs,[1]; measured conc. 44.9 μg/L,34 ± 5.5 /female/day
same,SSC Female,[1]; measured conc. 44.9 μg/L,0 ± 0
same,SSC Male,[1]; measured conc. 44.9 μg/L,93 ± 13
same,VTG (ng/mg of liver) Female,[1]; measured conc. 44.9 μg/L,173 ± 53 ng/mg of liver
same,VTG (ng/mg of liver) Male,[1]; measured conc. 44.9 μg/L,1.2 ± 1.2 ng/mg of liver
same,"effect on fecundity (number of total eggs), in words","[1]; within the test concentrations, 21-day exposure",No effect
same,IC50,medaka Esr1 (mEsr1),> 10000 nM

# Reference: paper PMC8359193, “Summary of reference chemicals evaluated by the fish short‐term reproduction assay, OECD TG229, using Japanese Medaka, Oryzias latipes” (Journal of Applied Toxicology, 2021)
